How the values were obtained:
HIV-1 Ba-L = test: antiviral assay in Mo/M.PHI. (p24), Ba-L; type: cell-based; details: Human immunodeficiency virus 1, BAL, cell-free p24
Description: (§1) Initial anti-HIV screening was performed with CEM-SS cells and HIV-1RFusing the XTT cytoprotection assay as previously described (Weislow et al., J. National Cancer Inst. 81: 577-586, (1989)). HIV-1 isolates included common laboratory stains (RF, IIIB and MN), as well as a panel of HIV-1 clinical isolates (Cushman et al., J. Med. Chem. 37: 3040-3050, (1994)). The pyridone-resistant HIV-1A17 isolate (Nunberg et al., J. Virol., 65: 4887-4892 (1991)) was obtained from Emilio Emini at Merck Sharpe and Dohme Laboratories. Phytohemagglutinin-stimulated human peripheral blood lymphocytes (PBLs) and fresh monocyte-macrophage (Mono/MF) cultures were prepared and utilized in antiviral assays as previously described (Rice et al., Proc. Nat'l. Academy Science, USA 90: 9721-9724, (1993)); (Cushman et al., J. Med. Chem. 37: 3040-3050, (1994)). EC50 values for these cultures indicate the drug concentration that provided a 50% reduction in viral p24 production. […] The compounds can be synthesized according to the teachings of Singh et al., Sulfur Letters 8: 107-114, (1988). The 4,5-cis-dihydroxy(1,1-dioxy-1,2,-dithiohexane) compound (NSC 624151) has been abbreviated as 624151 for convenience. […]

HIV-1RF = test: effect of increasing multiplicity of infection, CEM-SS cells; type: cell-based; details: for EC50: Human immunodeficiency virus 1, CEM-SS
Description: Initial anti-HIV screening was performed with CEM-SS cells and HIV-1RFusing the XTT cytoprotection assay as previously described (Weislow et al., J. National Cancer Inst. 81: 577-586, (1989)). HIV-1 isolates included common laboratory stains (RF, IIIB and MN), as well as a panel of HIV-1 clinical isolates (Cushman et al., J. Med. Chem. 37: 3040-3050, (1994)). The pyridone-resistant HIV-1A17 isolate (Nunberg et al., J. Virol., 65: 4887-4892 (1991)) was obtained from Emilio Emini at Merck Sharpe and Dohme Laboratories. Phytohemagglutinin-stimulated human peripheral blood lymphocytes (PBLs) and fresh monocyte-macrophage (Mono/MF) cultures were prepared and utilized in antiviral assays as previously described (Rice et al., Proc. Nat'l. Academy Science, USA 90: 9721-9724, (1993)); (Cushman et al., J. Med. Chem. 37: 3040-3050, (1994)). EC50 values for these cultures indicate the drug concentration that provided a 50% reduction in viral p24 production. […] The compounds can be synthesized according to the teachings of Singh et al., Sulfur Letters 8: 107-114, (1988). The 4,5-cis-dihydroxy(1,1-dioxy-1,2,-dithiohexane) compound (NSC 624151) has been abbreviated as 624151 for convenience. MT-2, MT-4, U1, HeLa-CD4-LTR-β-gal and 174xCEM cells were obtained from the AIDS Research and Reference Program (National Institute of Allergy and Infectious Disease, National Institutes of Health, Bethesda, Md. USA), as were the HIV-2MS and the AZT-resistant HIV-1G910-6 isolates.

HIV-1 p7NC protein = biological target: T1, HIV-1 p7NC protein (Human immunodeficiency virus type 1 group M subtype B, UniProt P04591); test: Trp37 zinc finger fluorescence assay (zinc ejection from p7NC); type: biochemical; details: for p7NC Trp37 Assay (RFU): 25 μM compound; for loss of Trp37 fluorescence of p7NC: 25 μM
T1 construct: recombinant HIV-1 p7NC protein
Description: (§2) Fluorescence measurements of the Trp^37 residue in the C-terminal zinc finger of the recombinant HIV-1 p7NC protein were performed as previously described (Rice et al., Science 270:1194, 1995). The p7NC protein was prepared at 20 μg/ml in 10 mM sodium phosphate buffer (pH 7.0), treated with 25 μM of each compound, then after indicated time intervals the samples were diluted 1/10 in 10 mM sodium phosphate buffer (pH 7.0) and the fluorescence intensity measured. The excitation and emission wavelengths utilized with the Shimadzu RF5000 spectrofluorimeter were 280 nm and 351 nm, respectively. In an alternate assay, the zinc-selective fluorescent probe N-(6-methoxy-8quinolyl-)-p-toluenesulfonamide (TSQ, Molecular Probes, Eugene, Oreg.) originally described by Fredrickson (J. Neurosci. Meth. 20:91, 1987) was utilized to measure zinc released from the p7NC protein in vitro. Briefly, 2 μM recombinant HIV-1 p7NC protein in 10 mM sodium phosphate buffer, pH 7.0, 10% glycerol was treated with 10 μM 624151 ([…] total volume in 96-well plates), and the time-dependent increase in fluorescence was measured on a Labsystems Fluoroskan II (360 nm excitation filter and 460 nm emission filter) over a period of 2 hours. Induction of alterations of p7NC proteins within intact virions involved treatment of HIV-1MN for 1 hour at 37° C. with 25 μM test compound. Samples were centrifuged 1 hour at 4° C. under 18,000×g to pellet the virus from the drug. Virus pellets were resolved by non-reducing SDS-PAGE and analyzed by immunoblot using monospecific rabbit antisera to the purified p7NC protein.
^b The percent decrease in RFU was calculated based on measurement of
the initial fluorescence of the p7NC protein before and 10 minutes after
treatment with the 25 μM of compound at ambient temperature.
The ability of 624151 to chemically interact with the zinc fingers of the HIV-1 p7NC protein was initially determined by a fluorescence assay (Rice et al., Science 270:1194-1197, (1995)) that measures a loss in intrinsic fluorescence of the tryptophan (Trp^37) residue in the second finger of the protein that occurs upon loss of zinc from the finger (Summers et al., Protein Sci. 1:563, 1992). […] As the 624151 modifies the zinc finger thiolates and the zinc is ejected over time, the metal is bound by the TSQ fluorochrome (FIG. 1(B)).
Sodium Phosphate buffer, pH 7.0 in 1 ml was treated with 25 μM of
compound. At indicated times, the mixture was diluted 1/10 and the
relative fluorescence units (RFU) measured in a Shimadzu RF5000
spectrofluorimeter with […] and Em = 351 mn. Following
loss of zinc from the Cterminal zinc finger, the Trp37 residue folds away
from the # aqueous environment and experiences a loss of fluorescence.

[1] = biological target: T2, p7NC protein in intact HIV-1MN virions (HIV-1 M:B_MN, UniProt P05888); test: p7NC immunoblot of treated intact virions, non-reducing SDS-PAGE; type: biochemical; details: for detectable virion p7NC / cross-linkage of virion NC proteins: HIV-1MN, FIG. 2(A)
T2 construct: cut from Gag polyprotein Pr55gag (also Gag-Pol Pr160)
Description: as §2
In order to determine if the 624151 entered intact HIV-1 virions and affected the p7NC protein zinc fingers, purified HIV-1MN was treated with increasing concentrations of the compound and the viral proteins were then separated by non-reducing SDS-PAGE and immunoblotted with monospecific antisera to the p7NC protein (FIG. 2(A)). […] Thus, 624151 effectively entered and inactivated cell-free HIV-1 virions by chemically attacking the p7NC CCHC zinc fingers and promoting cross-linkage among the p7NC proteins.

HIV-1, HIV-2 and SIV = test: range of antiviral action studies; type: cell-based; details: in words
Description: as §1

[2] = non-reducing SDS-PAGE, in words

O=S1(=O)C[C@H](O)[C@H](O)CS1 (relative stereo) [NSC 624151, cis-1,1-dioxo[1,2]dithiane-4,5-diol]
EC50 (HIV-1 Ba-L): 6.2 µM | EC50 (HIV-1RF; MOI 0.01): 8.4 µM | EC50 (HIV-1RF; MOI 0.02): 17.1 µM | EC50 (HIV-1RF; MOI 0.04): 16.8 µM | EC50 (HIV-1RF; MOI 0.08): 27.7 µM | EC50 (HIV-1RF; MOI 0.16): 21.3 µM | EC50 (HIV-1RF; MOI 0.32): 21 µM | effect of increasing the MOI on activity (HIV-1RF; in words): relatively resistant to the effects of increasing the viral MOI | p7NC Trp37 Assay (RFU) (HIV-1 p7NC protein; 0 min): 295 RFU | p7NC Trp37 Assay (RFU) (HIV-1 p7NC protein; 3 min): 136 RFU | p7NC Trp37 Assay (RFU) (HIV-1 p7NC protein; 10 min): 75 RFU | p7NC Trp37 Assay (RFU) (HIV-1 p7NC protein; 30 min): 42 RFU | loss of Trp37 fluorescence of p7NC (HIV-1 p7NC protein; FIG. 1(A), in words): time dependent loss of fluorescence | loss of Trp37 fluorescence of p7NC (HIV-1 p7NC protein; FIG. 1(A), in words, listed as 624151): time-dependent loss of fluorescence | zinc ejection (HIV-1 p7NC protein; FIG. 1(A), in words): promotes zinc ejection | reactivity with the zinc fingers (HIV-1 p7NC protein; in words): reacted aggressively with the p7NC protein zinc fingers | detectable virion p7NC / cross-linkage of virion NC proteins [1, 2]: enter intact virions and cause disulfide cross-linkage between virion NC proteins | detectable virion p7NC / cross-linkage of virion NC proteins ([1]; non-reducing SDS-PAGE, in words, listed as 624151): decreases in the amounts of detectable virion p7NC | interactions with other viral proteins [1, 2]: no interactions with other proteins was observed | virion p7NC profile under reducing conditions ([1]; reducing conditions (not shown)): no alterations in the virion p7NC profile were observed | inhibition of replication of laboratory and drug-resistant HIV-1 strains (HIV-1, HIV-2 and SIV; RF, IIIB, SK1, MN, AZT-, nevirapine-, pyridinone-, NNRTI-resistant strains): effectively inhibited replication | activity against RT mutants, clinical strains, clades, HIV-2 and SIV (HIV-1, HIV-2 and SIV): active against

From patent US6046228A, “Anti-viral pharmaceutical compositions containing saturated 1,2-dithiaheterocyclic compounds and uses thereof” (priority 1999, dated 2000)
